*1 amine or outer side, *2 acyl side, *3 side chain or, on linkers, in order; H or OH if unused. Where a SMILES comes first, the peptide text is derived from it. Bridges are numbered along the chain shown (N, C = ends). [ ]: non-standard residue; d: D form. The star is where a group is joined. 2Nal = N[C@@H](Cc1ccc2ccccc2c1)C(=O)O; X1 = NC(=O)CCCCN(CC(=O)[*:2])[*:1]; NMeR = CN[C@@H](CCCNC(=N)N)C(=O)O; Palmitoyl = CCCCCCCCCCCCCCCC(=O)*; hArg = N=C(N)NCCCC[C@H](N)C(=O)O; NMeQ = CN[C@@H](CCC(N)=O)C(=O)O; NMeD = CN[C@@H](CC(=O)O)C(=O)O; Cba = N[C@@H](CC1CCC1)C(=O)O; PEG4 = NCCOCCOCCOCCOCCC(=O)O; S5 = C=CCCC[C@](C)(N)C(=O)O; Ac4c = NC1(C(=O)O)CCC1
Tested on: Colo320DM
Assay: Colo320DM cell viability
Assay type: cell-based, human
Source text: In some embodiments, a polypeptide described herein inhibits binding of BLC9 to β-catenin when assessed in a cell-viability assay. In some embodiments, the cell-viability assay is a CellTiterGlo luminescent assay, wherein the viability of cells is quantitatively measured. Various cell lines, transformed cell lines or primary cells derived from a healthy subject or subject suffering from a disease can be used in this assay.

SMILES	IC50 [µM]
CC[C@H](C)[C@@H]1NC(=O)[C@@](C)(NC(=O)[C@H](CCCNC(=N)N)NC(=O)[C@H](CC(C)C)NC(=O)[C@@H](NC(=O)[C@H](CCC(N)=O)N(C)C(=O)[C@H](CC(C)C)NC(=O)[C@H](CO)NC(=O)[C@H](CCCNC(=N)N)NC(=O)[C@H](CCC(N)=O)NC(=O)[C@H](CCCNC(=N)N)NC(=O)[C@H](Cc2c[nH]cn2)NC(C)=O)[C@@H](C)O)CCCC=CCCC[C@@](C)(C(=O)N[C@@H](CC2CCC2)C(=O)N[C@@H](Cc2ccc3ccccc3c2)C(N)=O)NC(=O)[C@H](CCCNC(=N)N)NC(=O)[C@H](CCC(N)=O)NC1=O [SEQ ID NO: 153, HRQRSL(N-methylQ)TLRXIQRX(CBA)(2-Nal)] (Ac-HRQRSL[NMeQ]TLR[S5]IQR[S5][Cba][2Nal]-NH2; staple 11-15; N-terminus and C-terminus assumed)	2.56
CC[C@H](C)[C@@H]1NC(=O)[C@@](C)(NC(=O)[C@H](CCCNC(=N)N)NC(=O)[C@H](CC(C)C)NC(=O)[C@@H](NC(=O)[C@H](CCC(N)=O)N(C)C(=O)[C@H](CC(C)C)NC(=O)[C@H](CO)NC(=O)[C@H](CCCNC(=N)N)NC(=O)[C@H](CCC(N)=O)N(C)C(=O)[C@H](CCCNC(=N)N)NC(=O)[C@H](Cc2c[nH]cn2)NC(C)=O)[C@@H](C)O)CCCC=CCCC[C@@](C)(C(=O)N[C@@H](CC2CCC2)C(=O)N[C@@H](Cc2ccc3ccccc3c2)C(N)=O)NC(=O)[C@H](CCCNC(=N)N)NC(=O)[C@H](CCC(N)=O)NC1=O [SEQ ID NO: 155, HR(N-methylQ)RSL(N-methylQ)TLRXIQRX(CBA)(2-Nal)] (Ac-HR[NMeQ]RSL[NMeQ]TLR[S5]IQR[S5][Cba][2Nal]-NH2; staple 11-15)	2.15
CC[C@H](C)[C@@H]1NC(=O)[C@@](C)(NC(=O)[C@H](CCCNC(=N)N)NC(=O)[C@H](CC(C)C)NC(=O)[C@@H](NC(=O)[C@H](CCC(N)=O)NC(=O)[C@H](CC2CCC2)NC(=O)[C@H](CO)NC(=O)[C@H](CCCNC(=N)N)NC(=O)[C@H](CCC(N)=O)NC(=O)[C@H](CCCNC(=N)N)NC(=O)[C@H](Cc2c[nH]cn2)NC(C)=O)[C@@H](C)O)CCCC=CCCC[C@@](C)(C(=O)N[C@@H](CC2CCC2)C(=O)N[C@@H](Cc2ccc3ccccc3c2)C(N)=O)NC(=O)[C@H](CCCNC(=N)N)NC(=O)[C@H](CCC(N)=O)NC1=O [SEQ ID NO: 156, HRQRS(CBA)QTLRXIQRX(CBA)(2-Nal)] (Ac-HRQRS[Cba]QTLR[S5]IQR[S5][Cba][2Nal]-NH2; staple 11-15)	2.63
CC[C@H](C)[C@@H]1NC(=O)[C@@](C)(NC(=O)[C@H](CCCNC(=N)N)NC(=O)[C@H](CC(C)C)NC(=O)[C@@H](NC(=O)[C@H](CCC(N)=O)NC(=O)[C@H](CC(C)C)NC(=O)[C@H](CO)NC(=O)[C@H](CCCNC(=N)N)NC(=O)[C@H](CC(=O)O)N(C)C(=O)[C@H](CCCNC(=N)N)NC(=O)[C@H](Cc2c[nH]cn2)NC(C)=O)[C@@H](C)O)CCCC=CCCC[C@@](C)(C(=O)N[C@@H](CC2CCC2)C(=O)N[C@@H](Cc2ccc3ccccc3c2)C(N)=O)NC(=O)[C@H](CCCNC(=N)N)NC(=O)[C@H](CCC(N)=O)NC1=O [SEQ ID NO: 157, HR(N-methylD)RSLQTLRXIQRX(CBA)(2-Nal)] (Ac-HR[NMeD]RSLQTLR[S5]IQR[S5][Cba][2Nal]-NH2; staple 11-15)	3.17
CC[C@H](C)[C@@H]1NC(=O)[C@@](C)(NC(=O)[C@H](CCCNC(=N)N)NC(=O)[C@H](CC(C)C)NC(=O)[C@@H](NC(=O)[C@H](CCC(N)=O)NC(=O)[C@H](CC(C)C)NC(=O)[C@@H](NC(=O)[C@H](CCCNC(=N)N)NC(=O)[C@H](CCC(N)=O)NC(=O)[C@H](CCCNC(=N)N)NC(=O)[C@H](Cc2c[nH]cn2)NC(C)=O)[C@@H](C)O)[C@@H](C)O)CCCC=CCCC[C@@](C)(C(=O)N[C@@H](CC2CCC2)C(=O)N[C@@H](Cc2ccc3ccccc3c2)C(N)=O)NC(=O)[C@H](CCCNC(=N)N)NC(=O)[C@H](CCC(N)=O)NC1=O [SEQ ID NO: 159, HRQRTLQTLRXIQRX(CBA)(2-Nal)] (Ac-HRQRTLQTLR[S5]IQR[S5][Cba][2Nal]-NH2; staple 11-15)	2.48
CCCCCCCCCCCCCCCC(=O)NCCOCCOCCOCCOCCC(=O)N[C@@H](Cc1c[nH]cn1)C(=O)N[C@@H](CCCNC(=N)N)C(=O)N[C@@H](CCC(N)=O)C(=O)N[C@@H](CCCNC(=N)N)C(=O)N[C@@H](CO)C(=O)N[C@@H](CC(C)C)C(=O)N[C@@H](CCC(N)=O)C(=O)N[C@H](C(=O)N[C@@H](CC(C)C)C(=O)N[C@@H](CCCNC(=N)N)C(=O)N[C@@]1(C)CCCC=CCCC[C@@](C)(C(=O)N[C@@H](CC2CCC2)C(=O)N[C@@H](Cc2ccc3ccccc3c2)C(N)=O)NC(=O)[C@H](CCCNC(=N)N)NC(=O)[C@H](CCC(N)=O)NC(=O)[C@H]([C@@H](C)CC)NC1=O)[C@@H](C)O [SEQ ID NO: 160, HRQRSLQTLRXIQRX(CBA)(2-Nal)] ({Palmitoyl-PEG4}-HRQRSLQTLR[S5]IQR[S5][Cba][2Nal]-NH2; staple 11-15)	0.83
CCCCCCCCCCCCCCCC(=O)NCCOCCOCCOCCOCCC(=O)NCCCC[C@H](NC(=O)[C@H](Cc1ccc2ccccc2c1)NC(=O)[C@H](CC1CCC1)NC(=O)[C@]1(C)CCCC=CCCC[C@](C)(NC(=O)[C@H](CCCNC(=N)N)NC(=O)[C@H](CC(C)C)NC(=O)[C@@H](NC(=O)[C@H](CCC(N)=O)NC(=O)[C@H](CC(C)C)NC(=O)[C@H](CO)NC(=O)[C@H](CCCNC(=N)N)NC(=O)[C@H](CCC(N)=O)NC(=O)[C@H](CCCNC(=N)N)NC(=O)[C@H](Cc2c[nH]cn2)NC(C)=O)[C@@H](C)O)C(=O)N[C@@H]([C@@H](C)CC)C(=O)N[C@@H](CCC(N)=O)C(=O)N[C@@H](CCCNC(=N)N)C(=O)N1)C(N)=O [SEQ ID NO: 161, HRQRSLQTLRXIQRX(CBA)(2-Nal)]	3.35
CC[C@H](C)[C@@H]1NC(=O)[C@@](C)(NC(=O)[C@H](CCCNC(=N)N)NC(=O)[C@H](CC(C)C)NC(=O)[C@@H](NC(=O)[C@H](CCC(N)=O)NC(=O)[C@H](CC(C)C)NC(=O)[C@H](CO)NC(=O)[C@H](CCCCNC(=N)N)NC(=O)[C@H](CCC(N)=O)NC(=O)[C@H](CCCNC(=N)N)NC(=O)[C@H](Cc2c[nH]cn2)NC(C)=O)[C@@H](C)O)CCCC=CCCC[C@@](C)(C(=O)N[C@@H](CC2CCC2)C(=O)N[C@@H](Cc2ccc3ccccc3c2)C(N)=O)NC(=O)[C@H](CCCNC(=N)N)NC(=O)[C@H](CCC(N)=O)NC1=O [SEQ ID NO: 167, HRQ(homoR)SLQTLRXIQRX(CBA)(2-Nal)] (Ac-HRQ[hArg]SLQTLR[S5]IQR[S5][Cba][2Nal]-NH2; staple 11-15)	4.76
CC[C@H](C)[C@@H]1NC(=O)[C@@](C)(NC(=O)[C@H](CCCNC(=N)N)NC(=O)[C@H](CC(C)C)NC(=O)[C@@H](NC(=O)[C@H](CCC(N)=O)NC(=O)[C@H](CC(C)C)NC(=O)[C@H](CO)NC(=O)[C@H](CCCNC(=N)N)N(C)C(=O)[C@H](CCC(N)=O)NC(=O)[C@H](CCCNC(=N)N)NC(=O)[C@H](Cc2c[nH]cn2)NC(C)=O)[C@@H](C)O)CCCC=CCCC[C@@](C)(C(=O)N[C@@H](CC2CCC2)C(=O)N[C@@H](Cc2ccc3ccccc3c2)C(N)=O)NC(=O)[C@H](CCCNC(=N)N)NC(=O)[C@H](CCC(N)=O)NC1=O [SEQ ID NO: 168, HRQ(N-methylR)SLQTLRXIQRX(CBA)(2-Nal)] (Ac-HRQ[NMeR]SLQTLR[S5]IQR[S5][Cba][2Nal]-NH2; staple 11-15; N-terminus and C-terminus assumed)	4.14

The remaining lines, values ahead:

IC50 [µM]	SMILES
4.98	CC[C@H](C)[C@@H]1NC(=O)[C@@](C)(NC(=O)[C@H](CCCNC(=N)N)NC(=O)[C@H](CC(C)C)NC(=O)[C@@H](NC(=O)CN(CCCCC(N)=O)C(=O)[C@H](CC(C)C)NC(=O)[C@H](CO)NC(=O)[C@H](CCCNC(=N)N)NC(=O)[C@H](CCC(N)=O)NC(=O)[C@H](CCCNC(=N)N)NC(=O)[C@H](Cc2c[nH]cn2)NC(C)=O)[C@@H](C)O)CCCC=CCCC[C@@](C)(C(=O)N[C@@H](CC2CCC2)C(=O)N[C@@H](Cc2ccc3ccccc3c2)C(N)=O)NC(=O)[C@H](CCCNC(=N)N)NC(=O)[C@H](CCC(N)=O)NC1=O [SEQ ID NO: 169, HRQRSL(peptoid-Q)TLRXIQRX(CBA)(2-Nal)] (Ac-HRQRSL[X1]TLR[S5]IQR[S5][Cba][2Nal]-NH2; staple 11-15)
5.17	CC[C@H](C)[C@@H]1NC(=O)[C@@](C)(NC(=O)[C@H](CCCCNC(=N)N)NC(=O)[C@H](CC(C)C)NC(=O)[C@@H](NC(=O)[C@H](CCC(N)=O)NC(=O)[C@H](CC(C)C)NC(=O)[C@H](CO)NC(=O)[C@H](CCCNC(=N)N)NC(=O)[C@H](CCC(N)=O)NC(=O)[C@H](CCCNC(=N)N)NC(=O)[C@H](Cc2c[nH]cn2)NC(C)=O)[C@@H](C)O)CCCC=CCCC[C@@](C)(C(=O)N[C@@H](CC2CCC2)C(=O)N[C@@H](Cc2ccc3ccccc3c2)C(N)=O)NC(=O)[C@H](CCCNC(=N)N)NC(=O)[C@H](CCC(N)=O)NC1=O [SEQ ID NO: 170, HRQRSLQTL(homoR)XIQRX(CBA)(2-Nal)] (Ac-HRQRSLQTL[hArg][S5]IQR[S5][Cba][2Nal]-NH2; staple 11-15)
4.76	CC[C@H](C)[C@@H]1NC(=O)[C@@](C)(NC(=O)[C@H](CCCNC(=N)N)NC(=O)[C@H](CC(C)C)NC(=O)[C@@H](NC(=O)[C@H](CCC(N)=O)NC(=O)[C@H](CC(C)C)NC(=O)[C@H](CO)NC(=O)[C@H](CCCNC(=N)N)NC(=O)[C@H](CCC(N)=O)NC(=O)[C@H](CCCNC(=N)N)NC(=O)[C@H](Cc2c[nH]cn2)NC(C)=O)[C@@H](C)O)CCCC=CCCC[C@@](C)(C(=O)N[C@@H](CC2CCC2)C(=O)N[C@@H](Cc2ccc3ccccc3c2)C(N)=O)NC(=O)[C@H](CCCCNC(=N)N)NC(=O)[C@H](CCC(N)=O)NC1=O [SEQ ID NO: 171, HRQRSLQTLRXIQ(homoR)X(CBA)(2-Nal)] (Ac-HRQRSLQTLR[S5]IQ[hArg][S5][Cba][2Nal]-NH2; staple 11-15)
> 5	CC[C@H](C)[C@@H]1NC(=O)[C@@](C)(NC(=O)[C@H](CCCNC(=N)N)NC(=O)[C@H](CC(C)C)NC(=O)[C@@H](NC(=O)[C@H](CCC(N)=O)NC(=O)[C@H](CC(C)C)NC(=O)[C@H](CO)NC(=O)[C@H](CCCNC(=N)N)NC(=O)[C@H](CCC(N)=O)NC(=O)[C@H](CCCNC(=N)N)NC(=O)[C@H](Cc2c[nH]cn2)NC(C)=O)[C@@H](C)O)CCCC=CCCC[C@@](C)(C(=O)NC2(C(=O)N[C@@H](Cc3ccc4ccccc4c3)C(N)=O)CCC2)NC(=O)[C@H](CCCNC(=N)N)NC(=O)[C@H](CCC(N)=O)NC1=O [SEQ ID NO: 176, HRQRSLQTLRXIQRX(AC4C)(2-Nal)] (Ac-HRQRSLQTLR[S5]IQR[S5][Ac4c][2Nal]-NH2; staple 11-15)

Reference: patent publication US11591365B2, “BCL9 peptides and variants thereof” (WntRx Pharmaceuticals Inc., priority 2017, dated 2023)
